Measured values: patent publication US9726662B2, “Assay for drug discovery based on in vitro differentiated cells” (AXIOGENESIS AG, priority 2004, dated 2017)
Non-standard residues stand in square brackets, D forms with d. Residues, ends and D or L forms follow the SMILES beside them. No end group written: not given here.

Experiments:
[1] = test system: ES cell-derived cardiomyocytes; test: Interference of compounds with ET-1- or PE-induced hypertrophy of ES cell-derived cardiomyocytes (ANF/BNP RT-PCR); assay type: cell-based, mouse; conditions: for ANF induction (up-regulation) upon ET-1 stimulation, in words / BNP induction (up-regulation) upon ET-1 stimulation, in words: 100 nM ET-1, 24 h; for ANF induction (up-regulation) upon ET-1 stimulation, in words / BNP induction (up-regulation) upon ET-1 stimulation, in words / ANF induction (up-regulation) upon PE stimulation, in words / BNP induction (up-regulation) upon PE stimulation, in words: compound concentration as in Table 1, summary of Table 1; for ANF induction (up-regulation) upon PE stimulation, in words / BNP induction (up-regulation) upon PE stimulation, in words: 100 μM PE;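 for all read-outs here: mRNA levels of ANF and BNP quantified from RT-PCR products by densitometry of bands after agarose gel separation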
Description: PCR products were separated by agarose gel electrophoresis and band intensity was analysed using the BioDocAnalyze system (Biometra).
ES cell-derived cardiomyocytes were stimulated with either 100 nM endothelin-1 (ET-1) or 100 μM phenylephrine (PE) in the presence of the compounds indicated. After 24 hours expression of ANF and BNP mRNA was analyzed by RT-PCR.

[2] = test system: ES cell-derived cardiomyocytes; test: Induction of ANF and BNP expression by hypertrophic stimuli (RT-PCR, FIG. 3); assay type: cell-based, mouse; conditions: suspension culture; 24 h serum starvation, then 24 h stimulation; endothelin-1 100 nM, phenylephrine 200 μM, Angiotensin II 100 nM
Description: Cardiomyocytes differentiated from ES cells were serum-starved for 24 h and subsequently stimulated by endothelin-1 (100 nM; lanes 1, 6, 11), phenylephrine (200 μM; lanes 2, 7, […]) or Angiotensin II (100 nM; lanes 3, 8, 13). Non-stimulated controls were cultured in serum-free medium (lanes 4, 9, 14) or serum-supplemented medium (lanes 5, 10, 15). Subsequently, RNA was extracted and cDNA was synthesized using random hexamer priming. ANF, BNP, and gapdh cDNAs were amplified and PCR products were analyzed by agarose gel electrophoresis. M, size marker. Amplification parameters were as follows. cDNAs were amplified for 32 (ANF and BNP) or 26 (gapdh) PCR cycles consisting each of 1 min at 94° C., 1 min at 56° C., and 1 min at 72° C. The following primers were used: ANF-5′, 5′-[…]-3′ (SEQ ID NO: 14); ANF-3′, 5′-[…]-3′ (SEQ ID NO: 15); BNP-5′, 5′-[…]-3′ (SEQ ID NO: 18); BNP-3′, 5′-[…]-3′ (SEQ ID NO: 19); gapdh-5′, 5′-[…]-3′ (SEQ ID NO: 16); gapdh-3′ 5′-[…]-3′ (SEQ ID NO: 17). Expected PCR product sizes were 468 bp (ANF), 242 bp (BNP), and 349 bp (gapdh).
In a further experiment, the possible induction of an early embryonic gene program upon stimulation by endohelin-1, angiotensin II, or phenylephrine was analysed. To this end, puromycin resistant ES cell-derived cardiomyocytes were obtained as described above; however, after the final […] in puromycin containing medium cells were not transferred to a feeder layer but were kept in suspension culture. Following serum-starvation for 24 h by cultivation in Medium 199, cells were stimulated for 24 h by addition of endothelin-1, phenyleprine, or angiotensin II (Sigma). RNA was extracted and reverse transcribed using standard methods.
Expression of ANF and brain natriuretic peptide (BNP) was analysed by PCR amplification of the respective cDNAs.

[3] = test system: ES cell-derived cardiomyocytes; test: Size of ES cell-derived cardiomyocytes upon hypertrophic stimulation (microscopy, FIG. 1); assay type: cell-based; conditions: 24 h serum starvation, then 24 h stimulation; endothelin-1 100 nM or phenylephrine 200 μM; on inactivated mouse embryonic fibroblasts
Description: (§1) Hypertrophic cardiomyocytes in that cell culture system are characterized by increased size, increased protein synthesis, increase in sarcomeric assembly and reexpression of a fetal gene program, e.g. enhanced expression of the ANF (atrial natriuretic factor) gene. In order to test if embryonic stem (ES) cell-derived cardiomyocytes display similar features upon stimulation, the following experiments were performed. Green fluorescent cardiomyocytes were generated in accordance with the teachings of in international applications WO99/01552 and WO02/051987 in the following way. ES cells (line D3, ATCC, CRL 1934) that were transfected with a bi-cistronic vector containing the genes for green fluorescent protein (GFP) and puromycin-resistance under the transcriptional control of the […] heavy chain promoter (see WO02/051987), were induced to form aggregates (embryonic bodies, EBs) in the absence of LIF either according to the method in WO99/01552 and WO2/051987, respectively, or as described in European patent application no. 03015401.7. EBs were cultured for 9 days in IMDM (Invitrogen) supplemented with 20% FCS (Invitrogen, batch controlled) at 37° C., 5% CO2 and 95% humidity on 10 cm bacteriological dishes (Greiner). Subsequently, puromycin (Sigma, 2.5 μg/ml) was added to the cell culture medium and cells were cultured for further 10 days. […]

[4] = test system: ES cell-derived cardiomyocytes; test: Sarcomeric organization, immunostaining for sarcomeric alpha-actinin (FIG. 2); assay type: cell-based, mouse; conditions: 24 h serum starvation, then 24 h stimulation, endothelin-1 100 nM or phenylephrine 200 μM
Description: as §1

[5] = compound 100 nM, stimulus 100 nM ET-1, 24 h, relative to ET-1-stimulated sample without test compound (=100%)
[6] = compound 100 nM, stimulus 100 μM PE, 24 h, relative to PE-stimulated sample without test compound (=100%)
[7] = compound 1 μM, stimulus 100 nM ET-1, 24 h, relative to ET-1-stimulated sample without test compound (=100%)
[8] = compound 1 μM, stimulus 100 μM PE, 24 h, relative to PE-stimulated sample without test compound (=100%)
[9] = compound 10 μM, stimulus 100 nM ET-1, 24 h, relative to ET-1-stimulated sample without test compound (=100%)
[10] = compound 10 μM, stimulus 100 μM PE, 24 h, relative to PE-stimulated sample without test compound (=100%)

Compound | ANF induction (up-regulation) upon ET-1 stimulation, in words [1] | BNP induction (up-regulation) upon ET-1 stimulation, in words [1] | ANF induction (up-regulation) upon PE stimulation, in words ([1]; 24 h) | ANF expression [1, 7] | BNP expression [1, 7] [%] | ANF expression [1, 8] | BNP expression [1, 8] | ANF expression compared to control [2] | BNP expression compared to control [2] | further results
CN[C@@H]1C[C@H]2O[C@@](C)([C@@H]1OC)n1c3ccccc3c3c4c(c5c6ccccc6n2c5c31)C(=O)NC4 [Staurosporine] | inhibited | inhibited | inhibited |  |  |  |  |  |  | BNP induction (up-regulation) upon PE stimulation, in words ([1]; 24 h): inhibited; ANF expression [1, 5]: 30%; BNP expression [1, 5]: 30%; ANF expression [1, 6]: 30%; BNP expression [1, 6]: 30%
CCCC[C@@H](NC(=O)[C@@H](Cc1cn(C(=O)OC)c2ccccc12)NC(=O)[C@H](CC(C)(C)C)NC(=O)N1[C@H](C)CCC[C@@H]1C)C(=O)O [BQ788] | inhibit | inhibit | not | 70% | 70 | 100% (no effect) | 100% (no effect) |  |  | 
Angiotensin II [hypertrophic agonist (Sigma) used as stimulus] |  |  |  |  |  |  |  | modest increase | modest increase | 
COc1ccc(CCN(C)CCCC(C#N)(c2ccc(OC)c(OC)c2)C(C)C)cc1OC (stereo not drawn) [Verapamil] |  |  |  | 100% (no effect) | 30 | 40% | 20% |  |  | 
COc1cc2nc(N3CCN(C(=O)c4ccco4)CC3)nc(N)c2cc1OC [Prazosin] | no inhibition | no inhibition | inhibition |  |  |  |  |  |  | BNP induction (up-regulation) upon PE stimulation, in words ([1]; 24 h): inhibition; ANF expression [1, 9]: 100% (no effect); BNP expression [1, 9]: 100% (no effect); ANF expression [1, 10]: 40%; BNP expression [1, 10]: 40%
CNC[C@H](O)c1cccc(O)c1 [phenylephrine] |  |  |  |  |  |  |  | increased | increased | cardiomyocyte size upon stimulation [3]: increase in size; sarcomeric organization upon stimulation [4]: increase in sarcomeric organization
CC(C)C[C@@H]1NC(=O)[C@@H](C(C)C)NC(=O)[C@@H]2CCCN2C(=O)[C@@H](CC(=O)O)NC(=O)[C@@H](Cc2c[nH]c3ccccc23)NC1=O [BQ123] (cyclo(L[dW][dD]P[dV])) | inhibit | inhibit | not | 50% | 60 | 100% (no effect) | 100% (no effect) |  |  | 
COC(=O)C1=C(C)NC(C)=C(C(=O)OC)C1c1ccccc1[N+](=O)[O-] [Nifedipine] |  |  |  |  |  |  |  |  |  | ANF expression [1, 5]: 100% (no effect); BNP expression [1, 5]: 10%; ANF expression [1, 6]: 20%; BNP expression [1, 6]: 20%
endothelin-1 (CSCSSLMDKECVYFCHLDIIW; ends and bridges not checked; cysteine pairing not given here; UniProt P05305 53-73, looked up) [hypertrophic agonist (Sigma) used as stimulus] |  |  |  |  |  |  |  | increased | increased | cardiomyocyte size upon stimulation [3]: increase in size; sarcomeric organization upon stimulation [4]: increase in sarcomeric organization
